The values that follow come from paper PMC9718554, “Discovery of a fragment hit compound targeting D-Ala:D-Ala ligase of bacterial peptidoglycan biosynthesis” (Journal of Enzyme Inhibition and Medicinal Chemistry, 2022).

Like-named read-outs stand apart in the source and are kept apart here.

The assay deals with T1, E. coli DdlB enzyme (D-alanine:D-alanine ligase) (Escherichia coli, UniProt P07862).
T1 construct: made in house; host or cells: E. coli
The assay can be described thus: biochemical. Conditions: for remaining activity at 2200 µM: tested concentration 2.2 mM; for remaining activity at 1800 µM: tested concentration 1.8 mM; for remaining activity at 2900 µM: tested concentration 2.9 mM; for remaining activity at 1700 µM: tested concentration 1.7 mM; for remaining activity at 2300 µM: tested concentration 2.3 mM; for remaining activity at 2100 µM: tested concentration 2.1 mM; for remaining activity at 2400 µM: tested concentration 2.4 mM; for remaining activity at 500 µM: at 0.5 mM, read-out: DdlB inhibition, RA (Residual Activity); for remaining activity at 2000 µM: tested concentration 2.0 mM; for remaining activity at 1900 µM: tested concentration 1.9 mM.

The mark [1] stands for this setting: fragment library screening, read-out: DdlB RA.
Setting [2] is: residual activity of DdlB, fragment library screening, tested concentration 2.5 mM, read-out: DdlB RA.
Setting [3] is: residual activity, read-out: DdlB RA.
[4] abbreviates: tested concentration 2.5 mM, read-out: DdlB RA.

As for `CCOc1c(NC2CCCCC2)c(=O)c1=O` [Compound K906-2368], the remaining activity at 2200 µM (read-out: DdlB RA) was 76%.
As for `O=C(O)C1CCN(c2nc3cc(Cl)ccc3o2)CC1` [Compound 8019-8559], under setting [1], the remaining activity at 1800 µM was 93%.
With `N#Cc1ccc(N2CCCNCC2)nc1` [FLD124], under setting [2], the remaining activity at 2500 µM came out at 62%.
In the case of `N#Cc1c(N)cccc1F` [FLD137], under setting [2], the remaining activity at 2500 µM is 98%.
Take `CCOC(=O)c1cn[nH]c1O` [Compound C201-1623]: the remaining activity at 3200 µM (read-out: DdlB RA) is 101%.
On to `N#Cc1nc[nH]c1C#N` [FLD004], for which the remaining activity at 2500 µM (read-out: DdlB RA) was 100%.
As for `Cc1noc(-c2cccnc2Cl)n1` [Compound 8018-8637], the remaining activity at 2800 µM (tested concentration 2.8 mM, read-out: DdlB RA) stood at 96%.
As for `COCc1cn(C2CNC2)nn1` [Compound S727-0003], the remaining activity at 2900 µM (residual activity of DdlB, fragment library screening, read-out: DdlB RA) worked out at 7.54%.
`Nc1cccc(F)n1` [FLD199]: the remaining activity at 2500 µM under setting [2] was 91%.
Consider `O=C1CC(c2cccc(O)c2)c2snc(C(=O)O)c2N1` (stereo not drawn) [Compound 8020-5288], for which, under setting [3], the remaining activity at 1700 µM is 114%.
On to `COCCn1nc(-c2cocn2)c2c1CCN(C(C)C)C2` [SD01-0107], for which the remaining activity at 1700 µM under setting [3] is 92%.
For `Oc1cccc(-c2ccccc2)c1` [FLD076], the remaining activity at 2500 µM under setting [2] was 98%.
Same read-out and setting: in the case of `O=C(O)C1Cc2ccccc2N1` (stereo not drawn) [FLD038] it was 81%; in that of `COc1cc(N)ccn1` [FLD120], 97%.
`COc1nonc1O` [Compound 8019-4549]: the remaining activity at 4300 µM (tested concentration 4.3 mM, read-out: DdlB RA) amounted to 93%.
Consider `OC1CCCc2[nH]nc(-c3ccccc3)c21` (stereo not drawn) [Compound 8020-5457], for which, under “read-out: DdlB RA”, the remaining activity at 2300 µM came out at 96%.
Take `COc1ccc(Br)cc1OC` [FLD159]: the remaining activity at 2500 µM under setting [2] turned out to be 98%.
Turning to `CC1(C)Cc2[nH]c(=O)c(C(=O)O)cc2CO1` [Compound 4965-0162], the remaining activity at 2200 µM under setting [3] is 93%.
Take `O=c1c(N2CCCC2)c(N2CCCC2)c1=O` [Compound K906-4052]: the remaining activity at 2300 µM (read-out: DdlB RA) is 98%.
`O=C(O)c1c[nH]cn1` [FLD011]: the remaining activity at 2500 µM under setting [2] came to 100%.
In the case of `CCc1c(C)nn(-c2nnn[nH]2)c1O` [Compound 8019-0165], the remaining activity at 2600 µM (tested concentration 2.6 mM, read-out: DdlB RA) was found to be 76%.
On to `CCS(=O)(=O)N1CCc2[nH]c(-c3ccccc3)nc2C1` [Compound T147-0013], for which the remaining activity at 2100 µM under setting [3] stood at 81%.
Take `CN(CC1CCOC1)C(=O)C1CC1` (stereo not drawn) [Compound S213-1842]: the remaining activity at 3000 µM (residual activity of DdlB, fragment library screening, tested concentration 3.0 mM, read-out: DdlB RA) was 91%.
In the case of `O=C(O)c1ccn(COc2ccc(Cl)cc2Cl)n1` [Compound Y503-2333], the remaining activity at 1700 µM under setting [3] amounted to 96%.
As for `OB(O)c1ccn[nH]1` [Compound 8018-7072], the remaining activity at 4500 µM (tested concentration 4.5 mM, read-out: DdlB RA) amounted to 87%.
Turning to `CC(=O)N1CC(=O)N(CCc2ccccc2)CC(O)C1` (stereo not drawn) [SA85-1024], the remaining activity at 2200 µM under setting [3] was determined as 95%.
With `Cc1cc(C(=O)O)n2nc(C)c(Cl)c2n1` [Compound Y504-8761], the remaining activity at 2200 µM under setting [3] is 98%.
In the case of `Nc1cccc(N)c1` [FLD111], under setting [2], the remaining activity at 2500 µM was 92%.
For `CCNC(=O)N1CCCN(C)c2ccccc21` [Compound T599-3176], for the setting “read-out: DdlB RA”, the remaining activity at 2400 µM is 96%.
`NC(=O)c1cnn2c(-c3ccccc3)ccnc12` [Compound 21, 7-Phenylpyrazolo[1,5-a]pyrimidine-3-carboxamide]: the remaining activity at 500 µM is 96%.
In the case of `COc1ccc(B(O)O)cc1F` [Compound 1222-0120], the remaining activity at 2900 µM (read-out: DdlB RA) stood at 93%.
With `N#Cc1ccc(F)c(F)c1` [FLD163], under setting [2], the remaining activity at 2500 µM is 95%.
For the compound `Nc1ccc2nsnc2c1` [FLD147], the remaining activity at 2500 µM under setting [2] amounted to 100%.
Take `CN1CCN(C2CC(=O)N(c3ccccc3)C2=O)CC1` (stereo not drawn) [Compound 5593-0294]: the remaining activity at 2000 µM under setting [3] was determined as 99%.
For `Cc1nc(C(=O)O)cs1` [FLD100], the remaining activity at 2500 µM under setting [2] came out at 93%.
On to `Cc1ccn(C(C)C(=O)O)n1` (stereo not drawn) [Compound Y503-2318], for which the remaining activity at 3200 µM (tested concentration 3.2 mM, read-out: DdlB RA) was found to be 95%.
For the compound `CC(=O)N1CCC(=O)CC1` [FLD190], under setting [2], the remaining activity at 2500 µM was found to be 100%.
On to `O=C(Cn1cc2c(n1)CCCC2)Nc1ccc(F)cc1` [Compound C881-0402], for which the remaining activity at 2000 µM under setting [3] was found to be 79%.
Turning to `Cc1c(C)c(C)c(S(=O)(=O)NC(C)C)c(C)c1C` [Compound Y206-5269], under setting [3], the remaining activity at 2200 µM was determined as 77%.
For `NCCc1ccc(Br)cc1` [FLD170], under setting [2], the remaining activity at 2500 µM was 93%.
With `NS(=O)(=O)c1ccc(CNC(=O)N2CCOCC2)cc1` [Compound Y030-3729], under “read-out: DdlB RA”, the remaining activity at 1700 µM was 104%.
On to `CN1CCC2(CC1)CN(C1CCC1)Cc1ccccc1O2` [CM3852-0302], for which, under setting [3], the remaining activity at 1900 µM stood at 86%.
For `CCS(=O)(=O)N1CCC(F)(C(=O)N2CCCC2)CC1` [Compound T502-1464], the remaining activity at 2100 µM under setting [3] stood at 83%.
Still for that read-out and setting: in the case of `CCS(=O)(=O)N1CCCc2cc(C(=O)NC)ccc21` [Compound D348-0142] it was 92%.
Turning to `CN1CCN(C(=O)Nc2ccccc2C(=O)O)CC1` [Compound Y043-2499], under setting [3], the remaining activity at 1900 µM was 92%.
On to `OCc1ccncc1` [FLD197], for which, under setting [2], the remaining activity at 2500 µM worked out at 100%.
Take `O=C(O)C1CCN(c2cnc(N3CCCC3)nc2)CC1` [FF01-3116]: the remaining activity at 2200 µM under setting [3] worked out at 69%.
For `CCn1cc(S(=O)(=O)NC2CCCC2)c2cccnc21` [Compound P633-0557F], the remaining activity at 2000 µM under setting [3] is 89%.
Consider `CC1(C)Cc2noc(N)c2C(C)(C)N1O` [Compound 8013-4059], for which the remaining activity at 2200 µM (read-out: DdlB RA) is 96%.
`O=C(O)c1cnn2c(-c3cccc([N+](=O)[O-])c3)ccnc12` [Compound 13, 7–(3-Nitrophenyl)pyrazolo[1,5-a]pyrimidine-3-carboxylic acid]: the remaining activity at 500 µM amounted to 89%.
`CC(C)CS(=O)(=O)N1CCc2ccccc2C1` [Compound Y200-6914]: where the note is “read-out: DdlB RA”, the remaining activity at 2400 µM worked out at 73%.
Turning to `CCc1nnc(C2CCCN(C(=O)C3CCCCC3)C2)[nH]1` (stereo not drawn) [Compound T629-1509], the remaining activity at 1700 µM under setting [3] was found to be 71%.
Consider `O=C(O)CCCc1nc2ccccc2c(=O)n1C1CC1` [Compound Y042-5065], for which, under setting [1], the remaining activity at 1800 µM was found to be 92%.
As to `O=C(O)Cc1n[nH]c(-c2ccncc2)n1` [Compound 8019-7883], the remaining activity at 2500 µM under setting [4] worked out at 97%.
Turning to `Cc1ccc2nc(C)c(CN3CCCCC3C)c(O)c2c1` (stereo not drawn) [Compound 4300-0248], the remaining activity at 1800 µM under setting [3] turned out to be 87%.
For `CC#CC(=O)N(C)CCc1cn[nH]c1` [Compound T001-1282], the remaining activity at 2900 µM (read-out: DdlB RA) was found to be 86%.
As to `Cc1ccc(S(=O)(=O)NC2CC2)c(C)c1` [Compound Y206-5066], the remaining activity at 2700 µM (tested concentration 2.7 mM, read-out: DdlB RA) worked out at 94%.
Consider `COc1ccc(-c2c(Nc3cccc(C)c3)c(=O)c2=O)cc1` [Compound E470-1008], for which the remaining activity at 1700 µM (read-out: DdlB RA) was 100%.
As for `CC1CC(C)(C)Nc2c(C(=O)O)cccc21` (stereo not drawn) [Compound Y021-0767], the remaining activity at 2300 µM under setting [3] came to 97%.
In the case of `Cc1nc(N2CCC(C(=O)O)CC2)cc(C(F)(F)F)n1` [Compound S553-0322], the remaining activity at 1700 µM (read-out: DdlB RA) came to 105%.
In the case of `CCOc1c(Nc2ccc(F)cc2)c(=O)c1=O` [Compound G317-0061], the remaining activity at 2100 µM (read-out: DdlB RA) came to 96%.
For `Cc1cc(O)n(C2CCS(=O)(=O)C2)n1` (stereo not drawn) [Compound Y020-9160], the remaining activity at 2300 µM (read-out: DdlB RA) turned out to be 99%.
Regarding `Cc1cc(C(=O)O)n(C)n1` [FLD094], the remaining activity at 2500 µM under setting [2] is 96%.
For `CCOC(=O)Nc1ccccc1` [FLD098], the remaining activity at 2500 µM under setting [2] turned out to be 96%.
Regarding `OCc1cccs1` [FLD200], the remaining activity at 2500 µM under setting [2] was 95%.
For the compound `Cn1nccc1-c1cccc(B(O)O)c1` [Compound 8020-6599], the remaining activity at 2500 µM under setting [4] amounted to 93%.
On to `CC1(C)CC(O)(c2cc(C(=O)O)no2)CCO1` (stereo not drawn) [Compound 8019-4352], for which the remaining activity at 2500 µM under setting [4] was 72%.
Turning to `Oc1ccccc1` [FLD105], the remaining activity at 2500 µM (read-out: DdlB RA) was 95%.
For `CCn1nccc1[C@H](C)NC(=O)[C@H]1CCCC[C@H]1C(=O)O` [Compound Y503-1571], the remaining activity at 1700 µM under setting [1] came to 93%.
`NCCc1cccc(F)c1` [FLD175]: under setting [2], the remaining activity at 2500 µM stood at 94%.
For the compound `O=C1C(O)C2(CCCCC2)N1C1CCNCC1` (stereo not drawn) [Compound T965-0058], under setting [3], the remaining activity at 2100 µM was 90%.
`CNC(=O)NCCc1c[nH]c2ncccc12` [Compound M509-0295]: the remaining activity at 2300 µM under setting [3] came to 80%.
As for `CCc1nc(N2CCOCC2)ncc1C(=O)O` [Compound S272-0074], the remaining activity at 2500 µM under setting [4] amounted to 91%.
Take `CCOc1ccc2c(n1)CCN(C(=O)C1CC1)C2` [Compound S422-0032]: the remaining activity at 2000 µM (read-out: DdlB RA) stood at 97%.
Turning to `Brc1ccc(-c2nc[nH]n2)cc1` [Compound 8020-5438], under setting [3], the remaining activity at 2200 µM came to 88%.
As for `O=C(O)Cc1ccc(F)c(C(F)(F)F)c1` [FLD148], the remaining activity at 2500 µM under setting [2] worked out at 100%.
Consider `Cn1c(-c2ccco2)nnc1S(=O)(=O)O` [Compound 8020-6142], for which, for the setting “read-out: DdlB RA”, the remaining activity at 2200 µM worked out at 90%.
Take `Cc1nnc(C2CCCCN2C(=O)NC2CCCCC2)[nH]1` (stereo not drawn) [Compound M754-0764]: the remaining activity at 1700 µM under setting [3] was determined as 77%.
